Measurements: PMC4113265 (Journal of Natural Products, 2014)

Experiments:
[1] = test system: MIA PaCa-2 cells; assay: MTT antiproliferation/cytotoxicity assay; format: cell-based, human; conditions: MIA PaCa-2, MTT, concentration-response curves (Figure 2A)
[2] = freshly prepared rat serum; cited from earlier work
[3] = cited from earlier work

## apicidin
[1]
  potency relative to 1 in MIA PaCa-2 cells: significantly less active than 1

## chlamydocin
[2]
  half-life (t1/2) in serum: 8.7 min
[3]
  half-life (t1/2) in whole blood: 0.68 to 3.6 min

## trapoxin A
[1]
  potency relative to 1 in MIA PaCa-2 cells: comparable potency to 1
